Laboratory results taken from patent US20030129222A1, “Liposomal imexon” (priority 2000, published 2003).
Read-outs that look alike come from different tables or passages of the source.

Legend:
L1210 leukemia, Mdr = experiment: Cytotoxicity in tumor cell culture, MTT assay; assay type: cell-based, murine; conditions: Mus musculus, L1210, read-out: IC50 against human mouse tumors, L1210 leukemia Mdr
Source text: (§1) Relative potencies of the N-substituted 2-cyanoaziridine-1-carboxamides in a panel of tumor cell cultures are compared in Table 3. This panel includes the following lines of human tumor cells: sensitive and imexon-resistant lines of multiple myeloma (Matsuoka et al., 1967); ovarian carcinoma resistant to standard drugs (Hamilton et al., 1984); melanoma with a slow growth fraction (Girard et al., 1973); breast carcinoma including sensitive, doxorubicin-resistant (P-glycoprotein-positive) (Taylor et al., 1991), and mitoxantrone-resistant (P-glycoprotein-negative) (Futscher et al., 1994) lines; sensitive and multidrug-resistant colon carcinoma (Noguchi et al., 1979; Dalton et al., 1988); and multidrug-resistant lung carcinoma (P-glycoprotein-negative) (Girard et al., 1973). It also has sensitive (Goldin et al., 1961) and multidrug-resistant (P-glycoprotein-positive) (Salmon and Hersh, 1994) murine L1210 leukemia cells.

L1210 leukemia, Sens = experiment: Cytotoxicity in tumor cell culture, MTT assay; assay type: cell-based, murine; conditions: Mus musculus, L1210, read-out: IC50 against human mouse tumors, L1210 leukemia Sens
Source text: as §1

[1] = system: 8226 myeloma, Sens (drug-sensitive); experiment: Cytotoxicity in tumor cell culture, SRB assay; assay type: cell-based, human; conditions: Homo sapiens
Source text: as §1

A-549 lung = experiment: Cytotoxicity in tumor cell culture, SRB assay; assay type: cell-based, human; conditions: Homo sapiens, A549, read-out: IC50 against human mouse tumors, A-549 lung
Source text: as §1

A375 melan = experiment: Cytotoxicity in tumor cell culture, SRB assay; assay type: cell-based, human; conditions: Homo sapiens, A-375, read-out: IC50 against human mouse tumors, A375 melan
Source text: as §1

[2] = system: MCF7 breast, Dox (doxorubicin-resistant); experiment: Cytotoxicity in tumor cell culture, SRB assay; assay type: cell-based, human; conditions: Homo sapiens, MCF7, read-out: IC50 against human mouse tumors, MCF7 breast Dox
Source text: as §1

MCF7 breast, Sens = experiment: Cytotoxicity in tumor cell culture, SRB assay; assay type: cell-based, human; conditions: Homo sapiens, MCF7, read-out: IC50 against human mouse tumors, MCF7 breast Sens
Source text: as §1

[3] = system: MCF7 breast, mitox (mitoxantrone-resistant); experiment: Cytotoxicity in tumor cell culture, SRB assay; assay type: cell-based, human; conditions: Homo sapiens, MCF7, read-out: IC50 against human mouse tumors, MCF7 breast mitox
Source text: as §1

OVCAR3 ovarian = experiment: Cytotoxicity in tumor cell culture, SRB assay; assay type: cell-based, human; conditions: Homo sapiens, OVCAR-3, read-out: IC50 against human mouse tumors, OVCAR3 ovarian
Source text: as §1

[4] = system: 8226 myeloma, Res (imexon-resistant); experiment: Cytotoxicity in tumor cell culture, SRB assay; assay type: cell-based; conditions: Homo sapiens, read-out: IC50 against human mouse tumors, 8226 myeloma Res
Source text: as §1

WiDr colon, Sens = experiment: Cytotoxicity in tumor cell culture, SRB assay; assay type: cell-based; conditions: Homo sapiens, WiDr, read-out: IC50 against human mouse tumors, WiDr colon Sens
Source text: as §1

WiDr colon, res = experiment: Cytotoxicity in tumor cell culture, SRB assay; assay type: cell-based; conditions: Homo sapiens, WiDr, read-out: IC50 against human mouse tumors, WiDr colon res
Source text: as §1

[5] = substituent constant, from Hansch and Leo or calculated using Clog P software; cited from earlier work
PIE 2-3 sarcoma = conditions: cited from earlier work
leukocytes = conditions: in vivo; cited from earlier work

Work on `N#CC1CN1C(N)=O` (stereo not drawn) [Compound 1, 2-cyanoaziridine-1-carboxamide] yielded an IC50 (L1210 leukemia, Mdr) of over 90 µM, an IC50 (L1210 leukemia, Sens) of over 90 µM and an IC50 [1] of 288 µM. It also gave an IC50 ([1]; read-out: IC50 against human mouse tumors, 8226 myeloma Sens) of 288 µM, an IC50 ([1]; read-out: Log(1/C) (converted)) of 288 µM and an IC50 (A-549 lung) of over 280 µM. It also gave an IC50 (A375 melan) of over 90 µM, an IC50 [2] of over 54 µM and an IC50 (MCF7 breast, Sens) of over 54 µM. The IC50 [3] was over 54 µM, the IC50 (OVCAR3 ovarian) was over 90 µM and the IC50 [4] was 432 µM. For the same compound, the IC50 (WiDr colon, Sens) was over 280 µM, the IC50 (WiDr colon, res) was over 280 µM and the π [5] was 0. For the same compound, the “activity against PIE 2-3 sarcoma” value (PIE 2-3 sarcoma; 13: over a 10-fold dose range) was “active”, the “toxicity” value (PIE 2-3 sarcoma; rat, in vivo) was “low toxicity” and the “effect on number of leukocytes” value (leukocytes) was “increased the number of leukocytes”.
